# Assay results: paper PMC10108200, “Reaction Pathways for the Enzymatic Degradation of Poly(Ethylene Terephthalate): What Characterizes an Efficient PET‐Hydrolase?” (Chembiochem, 2022)
# Target: T1, IsP (Pseudideonella sakaiensis, UniProt A0A0K8P6T7)
# T1 construct: gene ISF6_4831; heterologously expressed and purified
# Assay: initial rates by RP-HPLC, Michaelis-Menten fit
# Type: biochemical
# Conditions: 50 °C, 10 min, 0-2 mM substrate, 0.01-0.5 μM enzyme
# Text: initial rates by RP-HPLC, Michaelis-Menten fit on IsP
# T1 sequence (A0A0K8P6T7 28-290): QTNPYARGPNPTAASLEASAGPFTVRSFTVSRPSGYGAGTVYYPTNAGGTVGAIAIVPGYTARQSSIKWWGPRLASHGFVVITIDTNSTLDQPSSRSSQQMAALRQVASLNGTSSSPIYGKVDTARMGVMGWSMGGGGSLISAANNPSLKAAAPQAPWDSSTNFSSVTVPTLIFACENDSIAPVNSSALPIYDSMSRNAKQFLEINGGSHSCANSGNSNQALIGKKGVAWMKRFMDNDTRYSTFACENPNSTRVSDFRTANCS
row,SMILES,Km
1,O=C(O)c1ccc(C(=O)OCCOC(=O)c2ccc(C(=O)OCCO)cc2)cc1 [TETE],140 ± 36 µM
2,O=C(O)c1ccc(C(=O)OCCOC(=O)c2ccc(C(=O)OCCOC(=O)c3ccc(C(=O)O)cc3)cc2)cc1 [TETET],58 ± 29 µM
